Data taken from ChEMBL document CHEMBL1201862, “PubChem BioAssay data set” (2004).
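Cultured in 96-well plates, cells were exposed to test compound for 48 hours across five concentrations. GI50 is the concentration that inhibits growth by half.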 The source made the active and inactive calls. Rule as the data show it: active = GI50 up to about 1.1 µM and inactive = higher.

Key:
Assay in all cases: NCI tumour cell line growth inhibition, 48 h
786-0 = system: 786-0
A498 = system: A498
A549 = system: A549
ACHN = system: ACHN
CAKI-1 = system: CAKI-1
CCRF-CEM = system: CCRF-CEM
COLO 205 = system: COLO 205
DLD-1 = system: DLD-1
DMS-114 = system: DMS-114
DMS-273 = system: DMS-273
EKVX = system: EKVX
HCC 2998 = system: HCC 2998
HCT-116 = system: HCT-116
HCT-15 = system: HCT-15
HL-60 = system: HL-60
HOP-18 = system: HOP-18
HOP-62 = system: HOP-62
HOP-92 = system: HOP-92
HT-29 = system: HT-29
IGROV-1 = system: IGROV-1
K562 = system: K562
KM-20L2 = system: KM-20L2
KM12 = system: KM12
LXFL 529 = system: LXFL 529
M14 = system: M14
M19-MEL = system: M19-MEL
MOLT-4 = system: MOLT-4
Malme-3M = system: Malme-3M
NCI-H23 = system: NCI-H23
NCI-H460 = system: NCI-H460
OVCAR-3 = system: OVCAR-3
OVCAR-4 = system: OVCAR-4
OVCAR-5 = system: OVCAR-5
OVCAR-8 = system: OVCAR-8
RPMI-8226 = system: RPMI-8226
RXF 393 = system: RXF 393
RXF 631 = system: RXF 631
SF-268 = system: SF-268
SF-295 = system: SF-295
SF-539 = system: SF-539
SK-MEL-28 = system: SK-MEL-28
SK-MEL-2 = system: SK-MEL-2
SK-MEL-5 = system: SK-MEL-5
SK-OV-3 = system: SK-OV-3
SN12C = system: SN12C
SNB-19 = system: SNB-19
SNB-75 = system: SNB-75
SNB-78 = system: SNB-78
SW-620 = system: SW-620
TK-10 = system: TK-10
U-251 = system: U-251
UACC-257 = system: UACC-257
UACC-62 = system: UACC-62
XF498 = system: XF498
BT-549 = system: BT-549
DU-145 = system: DU-145
Hs-578T = system: Hs-578T
LOX IMVI = system: LOX IMVI
MCF7 = system: MCF7
MDA-MB-231 = system: MDA-MB-231
MDA-MB-435 = system: MDA-MB-435
MDA-N = system: MDA-N
NCI-H226 = system: NCI-H226
NCI-H522 = system: NCI-H522
NCI/ADR-RES = system: NCI/ADR-RES
PC-3 = system: PC-3
SR = system: SR
T47D = system: T47D
UO-31 = system: UO-31

Q: What does the source list for `O=c1cc[nH]c2ccc3nn[nH]c3c12`?
A: GI50 (786-0): > 100 µM (inactive); GI50 (A498): > 100 µM (inactive); GI50 (A549): > 100 µM (inactive); GI50 (ACHN): > 100 µM (inactive); GI50 (CAKI-1): > 100 µM (inactive); GI50 (CCRF-CEM): > 100 µM (inactive); GI50 (COLO 205): > 100 µM (inactive); GI50 (DLD-1): > 100 µM (inactive); GI50 (DMS-114): > 100 µM (inactive); GI50 (DMS-273): > 100 µM (inactive); GI50 (EKVX): > 100 µM (inactive); GI50 (HCC 2998): > 100 µM (inactive); GI50 (HCT-116): > 100 µM (inactive); GI50 (HCT-15): > 100 µM; GI50 (HL-60): > 100 µM (inactive); GI50 (HOP-18): > 100 µM (inactive); GI50 (HOP-62): > 100 µM (inactive); GI50 (HOP-92): > 100 µM (inactive); GI50 (HT-29): > 100 µM (inactive); GI50 (IGROV-1): > 100 µM (inactive); GI50 (K562): > 100 µM (inactive); GI50 (KM-20L2): > 100 µM (inactive); GI50 (KM12): > 100 µM (inactive); GI50 (LXFL 529): > 100 µM (inactive); GI50 (M14): > 100 µM (inactive); GI50 (M19-MEL): > 100 µM (inactive); GI50 (MOLT-4): > 100 µM (inactive); GI50 (Malme-3M): > 100 µM (inactive); GI50 (NCI-H23): > 100 µM (inactive); GI50 (NCI-H460): > 100 µM (inactive); GI50 (OVCAR-3): > 100 µM (inactive); GI50 (OVCAR-4): > 100 µM (inactive); GI50 (OVCAR-5): > 100 µM (inactive); GI50 (OVCAR-8): > 100 µM (inactive); GI50 (RPMI-8226): > 100 µM (inactive); GI50 (RXF 393): > 100 µM (inactive); GI50 (RXF 631): > 100 µM (inactive); GI50 (SF-268): > 100 µM (inactive); GI50 (SF-295): > 100 µM (inactive); GI50 (SF-539): > 100 µM (inactive); GI50 (SK-MEL-28): > 100 µM (inactive); GI50 (SK-MEL-2): > 100 µM (inactive); GI50 (SK-MEL-5): > 100 µM (inactive); GI50 (SK-OV-3): > 100 µM (inactive); GI50 (SN12C): > 100 µM (inactive); GI50 (SNB-19): > 100 µM (inactive); GI50 (SNB-75): > 100 µM (inactive); GI50 (SNB-78): > 100 µM (inactive); GI50 (SW-620): > 100 µM (inactive); GI50 (TK-10): > 100 µM (inactive); GI50 (U-251): > 100 µM (inactive); GI50 (UACC-257): > 100 µM (inactive); GI50 (UACC-62): > 100 µM (inactive); GI50 (XF498): > 100 µM (inactive)

Q: Which GI50 (786-0) does the source give for `Cc1nc2c(nc1C)C(=O)c1ccccc1C2=O` here?
A: 8.38 µM (inactive)

Q: And the GI50 (A498)?
A: 3.74 µM (inactive)

Q: What about the GI50 (A549) of the same compound?
A: 1.25 µM (inactive)

Q: What about the GI50 (ACHN) of the same compound?
A: 10.4 µM (inactive)

Q: And the GI50 (BT-549)?
A: 1.35 µM (inactive)

Q: And the GI50 (CAKI-1)?
A: 24.4 µM (inactive)

Q: And the GI50 (CCRF-CEM)?
A: 8.55 µM (inactive)

Q: What about the GI50 (COLO 205) of the same compound?
A: 2.78 µM (inactive)

Q: What about the GI50 (DLD-1) of the same compound?
A: 14.9 µM (inactive)

Q: What about the GI50 (DMS-114) of the same compound?
A: 9.64 µM (inactive)

Q: What about the GI50 (DMS-273) of the same compound?
A: 3.41 µM (inactive)

Q: And the GI50 (DU-145)?
A: 1.36 µM (inactive)

Q: What about the GI50 (EKVX) of the same compound?
A: 15.4 µM (inactive)

Q: And the GI50 (HCC 2998)?
A: 6.58 µM (inactive)

Q: What about the GI50 (HCT-116) of the same compound?
A: 4.65 µM (inactive)

Q: What about the GI50 (HCT-15) of the same compound?
A: 2.58 µM

Q: What about the GI50 (HL-60) of the same compound?
A: 3.98 µM (inactive)

Q: What about the GI50 (HOP-18) of the same compound?
A: 3.29 µM (inactive)

Q: And the GI50 (HOP-62)?
A: 5.2 µM (inactive)

Q: And the GI50 (HOP-92)?
A: 18.1 µM (inactive)

Q: What about the GI50 (HT-29) of the same compound?
A: 4.46 µM (inactive)

Q: And the GI50 (Hs-578T)?
A: 2.14 µM (inactive)

Q: What about the GI50 (IGROV-1) of the same compound?
A: 7.96 µM (inactive)

Q: What about the GI50 (K562) of the same compound?
A: 7.67 µM (inactive)

Q: What about the GI50 (KM-20L2) of the same compound?
A: 17.7 µM (inactive)

Q: And the GI50 (KM12)?
A: 5.69 µM (inactive)

Q: What about the GI50 (LOX IMVI) of the same compound?
A: 1.05 µM (active)

Q: What about the GI50 (LXFL 529) of the same compound?
A: 24.4 µM (inactive)

Q: What about the GI50 (M14) of the same compound?
A: 0.871 µM (active)

Q: And the GI50 (M19-MEL)?
A: 0.258 µM (active)

Q: And the GI50 (MCF7)?
A: 1.36 µM (inactive)

Q: What about the GI50 (MDA-MB-231) of the same compound?
A: 7.55 µM (inactive)

Q: What about the GI50 (MDA-MB-435) of the same compound?
A: 0.204 µM (active)

Q: And the GI50 (MDA-N)?
A: 0.245 µM (active)

Q: And the GI50 (MOLT-4)?
A: 11.8 µM (inactive)

Q: And the GI50 (Malme-3M)?
A: 0.237 µM (active)

Q: And the GI50 (NCI-H226)?
A: 4.9 µM (inactive)

Q: What about the GI50 (NCI-H23) of the same compound?
A: 0.5 µM (active)

Q: And the GI50 (NCI-H460)?
A: 0.923 µM (active)

Q: What about the GI50 (NCI-H522) of the same compound?
A: 3.54 µM (inactive)

Q: What about the GI50 (NCI/ADR-RES) of the same compound?
A: 2.87 µM (inactive)

Q: And the GI50 (OVCAR-3)?
A: 2.68 µM (inactive)

Q: And the GI50 (OVCAR-4)?
A: 5.36 µM (inactive)

Q: And the GI50 (OVCAR-5)?
A: 4.97 µM (inactive)

Q: And the GI50 (OVCAR-8)?
A: 7.53 µM (inactive)

Q: And the GI50 (PC-3)?
A: 3.24 µM (inactive)

Q: And the GI50 (RPMI-8226)?
A: 11.1 µM (inactive)

Q: What about the GI50 (RXF 393) of the same compound?
A: 15.4 µM (inactive)

Q: And the GI50 (RXF 631)?
A: 11.9 µM (inactive)

Q: And the GI50 (SF-268)?
A: 10.2 µM (inactive)

Q: What about the GI50 (SF-295) of the same compound?
A: 1.48 µM (inactive)

Q: What about the GI50 (SF-539) of the same compound?
A: 4.6 µM (inactive)

Q: What about the GI50 (SK-MEL-28) of the same compound?
A: 1.84 µM (inactive)

Q: And the GI50 (SK-MEL-2)?
A: 1.24 µM (inactive)

Q: And the GI50 (SK-MEL-5)?
A: 0.188 µM (active)

Q: What about the GI50 (SK-OV-3) of the same compound?
A: 34.5 µM (inactive)

Q: What about the GI50 (SN12C) of the same compound?
A: 2.48 µM (inactive)

Q: And the GI50 (SNB-19)?
A: 5.37 µM (inactive)

Q: What about the GI50 (SNB-75) of the same compound?
A: 2.64 µM (inactive)

Q: And the GI50 (SNB-78)?
A: 26.9 µM (inactive)

Q: What about the GI50 (SR) of the same compound?
A: 8.43 µM (inactive)

Q: And the GI50 (SW-620)?
A: 2.98 µM (inactive)

Q: And the GI50 (T47D)?
A: 2.99 µM (inactive)

Q: What about the GI50 (TK-10) of the same compound?
A: 20.6 µM (inactive)

Q: What about the GI50 (U-251) of the same compound?
A: 6.55 µM (inactive)

Q: What about the GI50 (UACC-257) of the same compound?
A: 1.32 µM (inactive)

Q: And the GI50 (UACC-62)?
A: 0.859 µM (active)

Q: And the GI50 (UO-31)?
A: 11.7 µM (inactive)
